Laboratory results published in patent US10076511B2, “Bisamide derivative of dicarboxylic acid as an agent for stimulating tissue regeneration and recovery of diminished tissue function” (TREAMID GmbH, priority 2015, dated 2018).
Where “and” joins values, the source holds several entries; their conditions need not be identical. Equal values may be shown once. Marks after values point to notes of the source that are not given here.

Tests used:
male C57BL/6 mice = assay: Cachexia induced by Lewis lung carcinoma; assay type: in vivo, mouse; details: Day 28; Treamid 10 mg/kg intragastrically from Day 15
Method: Cachexia developed in male C57Bl/6 mice when simulating hematogenously metastasizing Lewis lung carcinoma (LLC). Tumor cells were injected once subcutaneously into the mice at a concentration of 5×10^6 in 0.1 ml of physiological saline (Yu-Chou T., Samuel K. K., I-Lu L. et al. Preclinical Investigation of the Novel Histone Deacetylase Inhibitor AR-42 in the Treatment of Cancer-Induced Cachexia//JNCI J Natl Cancer Inst (2015) 107(12)).
The day of the injection of tumor cells was taken as Day 1 of the experiment. Treamid was administered at a dose of 10 mg/kg intragastrically once daily, every day from Day 15 to […]. The animals were weighed one day before the introduction of tumor cells (Day 0) and on Day 28 of the experiment. On Day 28, the animals were euthanized in a CO2 chamber, and blood was collected. The level of free testosterone was determined in the blood serum by enzyme immunoassay.

male Wistar rats [1] = assay: Sperm motility in hypogonadotropic hypogonadism simulated with Synestrol; assay type: in vivo, rat; details: Synestrol 50 U/kg/day, Treamid 0.5 mg/kg or Tribestan 70 mg/kg intraperitoneally Day 31-45
Method: Hypogonadotropic hypogonadism was simulated by the administration of Synestrol. Estrogens are able to inhibit the secretion of LH (Luteinizing hormone) and FSH (follicle stimulating hormone). An increase in the concentration of estrogens in a male body is accompanied by an increase in the content of sex-steroid-binding globulins, which leads to a decrease in the concentration of free testosterone and to the appearance of asthenospermia.
Experiments were performed on 36 male Wistar rats (3 months of age). For 30 days after the beginning of the experiment, all male rats (except for the background group) were intramuscularly injected with Synestrol at a dose of 50 U/kg/day. Further, from Day 31 to Day 45 of the experiment, the animals of the experimental group, in addition to Synestrol, were intraperitoneally administered Treamid at dose of 0.5 mg/kg or reference drug Tribestan at a dose of 70 mg/kg. The effectiveness of Treamid was estimated by the number of motile sperm forms (percentage of motile sperm forms) isolated from the epididymis. The results of the studies were compared with those for the administration of Synestrol (control) and reference drug Tribestan.

male Wistar rats [2] = assay: Chronic abacterial prostatitis (CAP) model, prostate weight and morphometry; assay type: in vivo, rat
Method: (§1) This is manifested in a decrease in the severity of the morphological changes typical in these diseases. CAP was simulated by suturing the ventral lobe of the gland with a silk thread, and BPH was simulated by the administration of Sulpiride. The reference drug was Prostamol Uno.
Treamid were administered intragastrically to animals with CAP at a dose of 0.5 mg/kg for 15 days.
(§2) Experiments were performed on 40 male Wistar rats (3 months of age). To simulate chronic abacterial prostatitis, the ventral lobe of the prostate was sutured with a silk thread (under anesthesia). The model of benign prostatic hyperplasia (BPH) was simulated in rats by inducing hyperprolactinaemia, for which male rats were intraperitoneally injected with Sulpiride at a dose of 40 mg/kg every day for 2 months (Eglonil, Sanofi Winthrop Industry, France).
One month after the surgery, the animals of the experimental group were intraperitoneally administered Treamid at a dose of 0.5 mg/kg once daily for 15 days. At the end of the administration course, the animals were weighed and euthanized in a CO2 chamber. The ventral lobe of the gland was then dissected, weighed, and its volume was measured, followed by the calculation of a weight coefficient, and subjected to morphological analysis. For this purpose, the prostate was fixed in formalin and poured into paraffin. Paraffin sections of a thickness of 5 μm were stained with hematoxylin-eosin according to Van Gieson on the connective tissue, to calculate the relative area of the epithelium. Further, the severity of atrophic processes and developing sclerosis was qualitatively assessed. The assessment was carried out on standard area of the gland section by using a computer graphic analysis (micrographs of 10 serial visual fields performed by an AxioCam Erc5s camera mounted on an AxioLab A1 microscope (×10 lens, ×10 eyepiece), with an image transfer software of “AxioVision LE”, Carl Zeiss). The area occupied by secretory sites, collagen fibers of connective tissue septa was determined. The effectiveness of the drug was estimated by the following criteria: lower intensity of morphological symptoms of chronic abacterial prostatitis (atrophy and sclerosis): the area occupied by secretory sections, collagen fibers of connective tissue septa.

male rats = assay: Benign prostatic hyperplasia (BPH) model induced with Sulpiride, prostate weight and morphometry; assay type: in vivo, rat
Method: as §1
Animals with BPH received Teramide intragastrically for 2 months at a dose of 0.5 mg/kg.
as §2
The ability of Treamid to normalize the structure of the prostate gland was studied in the presence of administration of Sulpiride. For this purpose, Treamid was administered intragastrically for 2 months at a dose of 0.5 mg/kg simultaneously with Sulpirid. The control animals received a solvent (2% starch mucus) in an equivalent volume. The animals of the comparison group were injected intragastrically with a solution of Prostamol Uno at a dose of 50 mg/kg. At the end of the administration course, the animals were weighed and euthanized in a CO2 chamber. Sulpiride is known to cause the development of BPH in the lateral lobe of the gland in rats [Van Coppenolle Fabien, Christian Slomianny, Francoise Carpentier Effects of hyperprolactinemia on rat prostate growth: evidence of androgeno—dependence.//Physiol. Endocrinol. Metab.—2001.—P. 120-129]. In this regard, this lobe was dissected. Its weight, weight coefficient, and volume were determined. Further, it was subjected to a morphological analysis. The lateral lobe of the prostate gland was fixed in 10% formalin and poured into paraffin, followed by preparation of sections of a thickness of 5 μm. Deparaffined sections of the gland were stained with hematoxylin and eosin. On the histological sections, the presence of proliferative centers and daughter acini were determined per standard section area. In addition, the area of the epithelial and stromal structures was measured on the standard area of a histological section. These parameters were determined by using a computer graphic analysis on the standard area of a histological section (micrographs of 10 serial visual fields performed by an AxioCam Erc5s camera mounted on an AxioLab A1 microscope (×10 lens, ×10 eyepiece), with an image transfer software of “AxioVision LE”, Carl Zeisis). The stromal-epithelial ratio was defined as a ratio of the area of stroma to the area of epithelium.
The effectiveness of the test compound was estimated by the following criteria: lower intensity of morphological symptoms of benign prostatic hyperplasia:—a decrease in the number of proliferation centers and daughter acini, and a decrease in the area of the epithelium.

[3] = Treamid 0.5 mg/kg 15 days, Prostamol Uno 50 mg/kg
[4] = anterior part of the prostate gland, Treamid 0.5 mg/kg, Prostamol Uno 50 mg/kg
[5] = Treamid 0.5 mg/kg 2 months, Prostamol Uno 50 mg/kg

O=C(CCCC(=O)NCCc1ncc[nH]1)NCCc1ncc[nH]1 [Treamid]
Body weight, including the subtraction of the tumor weight (male C57BL/6 mice): 23.8 ± 0.57 g
The free testosterone level (pg/ml) in the blood serum (male C57BL/6 mice): 3.2 ± 0.3*• pg/ml
The number of motile sperm cells (%) (male Wistar rats [1]; group X ± m): 69.06 ± 2.98#*⋄ %
The number of motile sperm cells (%) (male Wistar rats [1]; individual animals): 67.04% and 56.84% and 78.65% and 59.09% and 72.63% and 66.67% and 66.99% and 85.55% and 68.08%
increase in the area of the acinar epithelium (male Wistar rats [2]; Treamid 0.5 mg/kg): 22%
Volume of the anterior lobe of the prostate gland, cm^3 (male Wistar rats [2]; [3]): 0.90 ± 0.20 cm^3
Weight coefficient of the anterior lobe of the prostate gland (male Wistar rats [2]; [3]): 1.97 ± 0.47 mg/g
Weight of the anterior lobe of the prostate gland (male Wistar rats [2]; [3]): 976.00 ± 226.62 mg
Area of collagen fibers (male Wistar rats [2]; [4]): 2.64 ± 0.12 %
Area of the acinar epithelium (male Wistar rats [2]; [4]): 26.33 ± 2.63%
Volume of the lateral lobe of the prostate gland, cm^3 (male rats; [5]): 0.62 ± 0.14# cm^3
Weight coefficient of the lateral lobe of the prostate gland (male rats; [5]): 0.69 ± 0.12 mg/g
Weight of the lateral lobe of the prostate gland (male rats; [5]): 381.67 ± 70.30 mg
Relative area (%) of the acinar epithelium on the standard area of a section of the lateral lobe (male rats; group M ± m): 13.89 ± 2.08 %
Relative area (%) of the stroma on the standard area of a section of the lateral lobe (male rats; group M ± m): 45.66 ± 2.30 %
The number of daugter proliferative centers (abs.) (male rats; group M ± m): 1.60 ± 0.60 abs.
The number of structures (abs.) consisting of 2-3 glandules tightly adjacent to each other (male rats; group M ± m): 1.60 ± 0.81 abs.
Relative area (%) of the acinar epithelium on the standard area of a section of the lateral lobe (male rats; individual animals): 10.26% and 14.09% and 16.30% and 20.19% and 8.61%
Relative area (%) of the stroma on the standard area of a section of the lateral lobe (male rats; individual animals): 48.61% and 45.59% and 44.14% and 38.12% and 51.82%
The number of daugter proliferative centers (abs.) (male rats; individual animals): 3 abs. (2×) and 1 abs. (2×) and 0 abs.
The number of structures (abs.) consisting of 2-3 glandules tightly adjacent to each other (male rats; individual animals): 1 abs. and 3 abs. and 4 abs. and 0 abs. (2×)
